{"source": "patent US11534437B2", "about": "“Methods of treating radiation induced gastrointestinal syndrome (RIGS) and related disease states using compound 512” (BCN Biosciences L.L.C., priority 2017, dated 2022)", "key": {"plasma cytokines": {"tested_on": "plasma cytokines", "assay": "Plasma cytokine levels in rodents after lower thoracic radiation", "type": "in vivo", "conditions": "LTI + 512, 5 mg/kg 512", "source_text": "Ctl, control with no treatment. LTI, lower thoracic radiation, LTI+512, radiation, and 512. The cytokine phenotype is anti-inflammatory where IL-6 is an anti-inflammatory cytokine required for controlling local or systemic acute inflammatory responses and IL-1 is pro inflammatory and so forth."}, "[1]": {"tested_on": "HEK293 cells having TCF/LEF luciferase reporter construct", "assay": "TCF/LEF luciferase reporter assay for canonical WNT activity", "type": "cell-based", "conditions": "LiCl 10 mM, 24 hr", "protocol": "To determine the canonical WNT activity in 512 (28.78 μM) HEK293 cells having TCF/LEF luciferase reporter construct were treated with 512 or vehicle control. LiCl (10 mM) treatment was used as positive control for luciferase activity. Luciferase activity was determined 24 hr after using Dual-Luciferase® Reporter Assay System (Promega) as per manufacturer's protocol. HEK293 cells having FOPFLASH construct were used as negative control. […] WNT-β catenin signaling is well known to promote the self renewal and differentiation of LGR5+ epithelial (lung, oral, intestinal) stem cells."}}, "data": [{"smiles": "O=[N+]([O-])c1ccc(S(=O)(=O)N2CCN(c3ccccc3)CC2)cc1", "note": "[Compound 512, 1-[(4-nitrobenezene)sulfonyl]-4-phenyl piperazine]", "values": [{"measurement": "plasma IL-6 level", "setting": "plasma cytokines; Ctl 7, LTI 15", "value": 88}, {"measurement": "plasma KC level", "setting": "plasma cytokines; Ctl 10, LTI 210", "value": 245}, {"measurement": "plasma IL-23 level", "setting": "plasma cytokines; Ctl 13, LTI 79", "value": 23}, {"measurement": "plasma MCP-1 level", "setting": "plasma cytokines; Ctl 17, LTI 103", "value": 77}, {"measurement": "plasma MIP-1b level", "setting": "plasma cytokines; Ctl 25, LTI 88", "value": 13}, {"measurement": "plasma IL-1b level", "setting": "plasma cytokines; Ctl 32, LTI 50", "value": 7}]}, {"smiles": "[Cl-].[Li+]", "note": "[LiCl]", "values": [{"measurement": "luciferase activity (positive control)", "setting": "[1]", "value": "significant increase in Luciferase activity"}]}]}
